Laboratory results published in PubChem BioAssay AID248 (DTP/NCI, 2004).
“And” between values parts separate entries of the source, which are not always exact repeats. Identical values can stand only once. Inconclusive results and toxic doses are left out. Rule as the data show it: active = T/C of 150% or more; inactive = T/C below 125%.

Test system: L1210 leukemia ip in BDF1 mice, survival T/C
Assay: NCI In Vivo Anticancer Drug Screen. Data for tumor model L1210 Leukemia (intraperitoneal) in B6D2F1 (BDF1) mice
Conditions: endpoint: mean survival time, higher = longer survival
Method in brief: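 Each compound was tested against a transplantable tumor grown in mice. The endpoint was survival, with treated animals benchmarked against vehicle controls as a simple ratio.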

[1] = dose: 50.0 mg/kg/injection, schedule: Q01DX009 (ip), vehicle: saline
[2] = dose: 100.0 mg/kg/injection, schedule: Q01DX009 (ip), vehicle: saline
[3] = dose: 200.0 mg/kg/injection, schedule: Q04DX003 (ip), vehicle: saline
[4] = dose: 100.0 mg/kg/injection, schedule: Q01DX009 (ip), vehicle: Klucel (hydroxypropylcellulose) (HPC)
[5] = dose: 100.0 mg/kg/injection, schedule: Q04DX003 (ip), vehicle: saline
[6] = dose: 100.0 mg/kg/injection, schedule: Q01DX001 (ip), vehicle: saline
[7] = dose: 200.0 mg/kg/injection, schedule: Q01DX001 (ip), vehicle: saline
[8] = dose: 400.0 mg/kg/injection, schedule: Q01DX001 (ip), vehicle: saline
[9] = dose: 100.0 mg/kg/injection, schedule: Q04DX002 (ip), vehicle: saline with Tween-80
[10] = dose: 200.0 mg/kg/injection, schedule: Q04DX002 (ip), vehicle: saline with Tween-80
[11] = dose: 50.0 mg/kg/injection, schedule: Q04DX003 (ip), vehicle: saline with Tween-80
[12] = dose: 100.0 mg/kg/injection, schedule: Q04DX003 (ip), vehicle: saline with Tween-80
[13] = dose: 100.0 mg/kg/injection, schedule: Q04DX003 (ip), vehicle: Klucel (hydroxypropylcellulose) (HPC)
[14] = dose: 200.0 mg/kg/injection, schedule: Q04DX003 (ip), vehicle: Klucel (hydroxypropylcellulose) (HPC)
[15] = dose: 200.0 mg/kg/injection, schedule: Q04DX003 (ip), vehicle: saline with Tween-80
[16] = dose: 400.0 mg/kg/injection, schedule: Q04DX003 (ip), vehicle: saline with Tween-80
[17] = dose: 200.0 mg/kg/injection, schedule: Q01DX009 (ip), vehicle: Klucel (hydroxypropylcellulose) (HPC)
[18] = dose: 400.0 mg/kg/injection, schedule: Q01DX009 (ip), vehicle: Klucel (hydroxypropylcellulose) (HPC)
[19] = dose: 50.0 mg/kg/injection, schedule: Q01DX001 (ip), vehicle: saline
[20] = dose: 75.0 mg/kg/injection, schedule: Q01DX009 (ip), vehicle: Klucel (hydroxypropylcellulose) (HPC)
[21] = dose: 150.0 mg/kg/injection, schedule: Q01DX009 (ip), vehicle: Klucel (hydroxypropylcellulose) (HPC)

Measured: T/C

CCCCCCC(=O)OCCN1CCN(CC/C=C2\c3ccccc3Sc3ccc(C(F)(F)F)cc32)CC1
inactive: dose: 50.0 mg/kg/injection, schedule: Q01DX001 (ip), vehicle: carboxymethylcellulose (CMC) 94 % of control | [1] 123 % of control | dose: 100.0 mg/kg/injection, schedule: Q01DX001 (ip), vehicle: carboxymethylcellulose (CMC) 92 % of control | [2] 108 % of control | dose: 132.0 mg/kg/injection, schedule: Q04DX003 (ip), vehicle: saline 103 % of control | dose: 200.0 mg/kg/injection, schedule: Q01DX001 (ip), vehicle: carboxymethylcellulose (CMC) 94 % of control | [3] 110 % of control | dose: 400.0 mg/kg/injection, schedule: Q01DX001 (ip), vehicle: carboxymethylcellulose (CMC) 94 % of control

CNc1ncc2nc(C)c(=O)n(C)c2n1
inactive: dose: 50.0 mg/kg/injection, schedule: Q01DX009 (ip), vehicle: Klucel (hydroxypropylcellulose) (HPC) 98 % of control | [4] 95 % of control

C=CCN(CC=C)CCSC(=S)NCCOC
inactive: dose: 100.0 mg/kg/injection, schedule: Q01DX001 (ip), vehicle: acetone 100 % of control | dose: 100.0 mg/kg/injection, schedule: Q04DX003 (ip), vehicle: acetone 107 % of control | dose: 200.0 mg/kg/injection, schedule: Q01DX001 (ip), vehicle: acetone 97 % of control | dose: 200.0 mg/kg/injection, schedule: Q04DX003 (ip), vehicle: acetone 106 % of control | dose: 400.0 mg/kg/injection, schedule: Q01DX001 (ip), vehicle: acetone 90 % of control | dose: 400.0 mg/kg/injection, schedule: Q04DX003 (ip), vehicle: acetone 107 % of control

O=C1N=C(c2ccccc2)C(c2ccccc2)=N1
inactive: [5] 96 % of control | [3] 90 % of control | dose: 400.0 mg/kg/injection, schedule: Q04DX003 (ip), vehicle: saline 96 % of control

CC(=O)NCC(N)=S
inactive: [6] 102 % of control | [7] 102 % of control | [8] 98 % of control

CN(C)S(=O)(=O)c1ccc(NC(=O)OC(c2ccccc2)(c2ccccc2)c2ccccc2)cc1
inactive: [6] 96 % of control | [7] 92 % of control | [8] 96 % of control

Cc1ccc(SSSc2ccc(C)cc2[N+](=O)[O-])c([N+](=O)[O-])c1
inactive: dose: 50.0 mg/kg/injection, schedule: Q04DX002 (ip), vehicle: saline with Tween-80 88 % of control | [9] 88 % of control | [10] 98 % of control

Cn1c(=O)c2[n-]cnc2n(C)c1=O.Cn1c(=O)c2[n-]cnc2n(C)c1=O.[Pt+2]
inactive: dose: 25.0 mg/kg/injection, schedule: Q04DX003 (ip), vehicle: saline with Tween-80 102 % of control | [11] 98 % of control | [12] 98 % of control

O=[N+]([O-])c1ccc2c(c1)n([O-])c1ccccc1[n+]2=O
inactive: dose: 50.0 mg/kg/injection, schedule: Q04DX003 (ip), vehicle: Klucel (hydroxypropylcellulose) (HPC) 89 % of control | dose: 100.0 mg/kg/injection, schedule: Q01DX001 (ip), vehicle: Klucel (hydroxypropylcellulose) (HPC) 97 % of control | [13] 90 % of control and 92 % of control | dose: 200.0 mg/kg/injection, schedule: Q01DX001 (ip), vehicle: Klucel (hydroxypropylcellulose) (HPC) 95 % of control | [14] 97 % of control and 101 % of control

O=C(NC(CO)C(O)c1ccc([N+](=O)[O-])cc1)C(Cl)Cl (configuration not stated)
inactive: [12] 102 % of control | [15] 101 % of control | [16] 106 % of control

COc1ccc2c(c1)CCNC2CCO (configuration not stated)
inactive: [5] 103 % of control

O=c1c2c(=O)c3ccccc3c(=O)c=2c(=O)c2ccccc12
inactive: dose: 100.0 mg/kg/injection, schedule: Q04DX002 (ip), vehicle: Klucel (hydroxypropylcellulose) (HPC) 93 % of control | dose: 200.0 mg/kg/injection, schedule: Q04DX002 (ip), vehicle: Klucel (hydroxypropylcellulose) (HPC) 89 % of control | dose: 400.0 mg/kg/injection, schedule: Q04DX002 (ip), vehicle: Klucel (hydroxypropylcellulose) (HPC) 89 % of control

Cc1cc(Cl)c(Cl)cc1NC(=O)c1cccc([N+](=O)[O-])c1
inactive: [4] 93 % of control | [17] 96 % of control | [18] 100 % of control

NC(=O)c1ncn(C2OC(CO)C(O)C2O)c1N (configuration not stated)
inactive: [19] 111 % of control | [6] 111 % of control | [7] 114 % of control

O=C(O)C(Cc1ccsc1)C(=O)O
inactive: [6] 101 % of control | [7] 93 % of control

Nc1csc2cccc[n+]12
inactive: dose: 25.0 mg/kg/injection, schedule: Q04DX003 (ip), vehicle: saline 100 % of control | [6] 96 % of control

O=C(CC(=Nc1ccccc1)c1ccccc1)c1ccccc1.O=C(CC(=Nc1ccccc1)c1ccccc1)c1ccccc1.[Cu]
inactive: [11] 89 % of control | [12] 90 % of control

O=C(COc1ccc([N+](=O)[O-])cc1)Nc1cccnc1
inactive: [12] 96 % of control | [15] 95 % of control | [16] 96 % of control

CCCCCCCCN(c1ccc(C(=O)O)cc1)S(=O)(=O)c1ccc(C)cc1
inactive: [20] 103 % of control | [21] 100 % of control | dose: 300.0 mg/kg/injection, schedule: Q01DX009 (ip), vehicle: Klucel (hydroxypropylcellulose) (HPC) 90 % of control

Cc1cc(N=Nc2ccc(N(C)C)cc2)cc(C)[n+]1[O-]
inactive: [4] 104 % of control | [13] 100 % of control | [17] 98 % of control | [14] 95 % of control | dose: 400.0 mg/kg/injection, schedule: Q04DX003 (ip), vehicle: Klucel (hydroxypropylcellulose) (HPC) 88 % of control

COC1=CC23CCN(C)C(CCc4cc(OC)c(OC)c(OC)c42)C3=CC1=O (configuration not stated)
inactive: dose: 25.0 mg/kg/injection, schedule: Q04DX002 (ip), vehicle: saline 114 % of control | dose: 50.0 mg/kg/injection, schedule: Q04DX002 (ip), vehicle: saline 108 % of control | dose: 100.0 mg/kg/injection, schedule: Q04DX002 (ip), vehicle: saline 111 % of control | dose: 200.0 mg/kg/injection, schedule: Q04DX002 (ip), vehicle: saline 105 % of control | dose: 400.0 mg/kg/injection, schedule: Q04DX002 (ip), vehicle: saline 103 % of control

CC(=O)Nc1c(NN=C(C)C)[nH]c(=O)[nH]c1=O
inactive: [19] 98 % of control | [6] 96 % of control | [7] 102 % of control | [8] 98 % of control

C[n+]1ccccc1/C=N/O
inactive: dose: 25.0 mg/kg/injection, schedule: Q01DX009 (ip), vehicle: saline 105 % of control | dose: 33.0 mg/kg/injection, schedule: Q01DX009 (ip), vehicle: saline 100 % of control | [1] 98 % of control | [20] 102 % of control | dose: 75.0 mg/kg/injection, schedule: Q01DX009 (ip), vehicle: saline 98 % of control | dose: 75.0 mg/kg/injection, schedule: Q04DX003 (ip), vehicle: saline 91 % of control | [2] 100 % of control and 103 % of control | [5] 103 % of control | [21] 108 % of control | dose: 150.0 mg/kg/injection, schedule: Q04DX003 (ip), vehicle: saline 109 % of control | dose: 200.0 mg/kg/injection, schedule: Q01DX009 (ip), vehicle: saline 97 % of control | [3] 94 % of control | dose: 300.0 mg/kg/injection, schedule: Q04DX003 (ip), vehicle: saline 98 % of control

S=C(N/N=C1\CCCCC1c1ccccc1)Nc1ccccc1 (configuration not stated)
inactive: [4] 95 % of control | [17] 90 % of control | [18] 104 % of control

Cc1ccc(S(=O)(=O)Nc2cccc3c(NS(=O)(=O)c4ccc(C)cc4)cccc23)cc1
inactive: dose: 100.0 mg/kg/injection, schedule: Q01DX009 (ip), vehicle: saline with Tween-80 96 % of control | dose: 200.0 mg/kg/injection, schedule: Q01DX009 (ip), vehicle: saline with Tween-80 94 % of control | dose: 400.0 mg/kg/injection, schedule: Q01DX009 (ip), vehicle: saline with Tween-80 100 % of control

CCOc1ccc(N=Cc2ccc(OC(=O)c3ccccc3)c(OC)c2)cc1
inactive: [9] 102 % of control | [10] 95 % of control | dose: 400.0 mg/kg/injection, schedule: Q04DX002 (ip), vehicle: saline with Tween-80 113 % of control
